By IC50 is commonly meant the concentration at which inhibition is half-maximal.

The assay deals with T1, recombinant human cytosolic PEPCK (Homo sapiens, UniProt P35558).
T1 sequence (P35558 1-622): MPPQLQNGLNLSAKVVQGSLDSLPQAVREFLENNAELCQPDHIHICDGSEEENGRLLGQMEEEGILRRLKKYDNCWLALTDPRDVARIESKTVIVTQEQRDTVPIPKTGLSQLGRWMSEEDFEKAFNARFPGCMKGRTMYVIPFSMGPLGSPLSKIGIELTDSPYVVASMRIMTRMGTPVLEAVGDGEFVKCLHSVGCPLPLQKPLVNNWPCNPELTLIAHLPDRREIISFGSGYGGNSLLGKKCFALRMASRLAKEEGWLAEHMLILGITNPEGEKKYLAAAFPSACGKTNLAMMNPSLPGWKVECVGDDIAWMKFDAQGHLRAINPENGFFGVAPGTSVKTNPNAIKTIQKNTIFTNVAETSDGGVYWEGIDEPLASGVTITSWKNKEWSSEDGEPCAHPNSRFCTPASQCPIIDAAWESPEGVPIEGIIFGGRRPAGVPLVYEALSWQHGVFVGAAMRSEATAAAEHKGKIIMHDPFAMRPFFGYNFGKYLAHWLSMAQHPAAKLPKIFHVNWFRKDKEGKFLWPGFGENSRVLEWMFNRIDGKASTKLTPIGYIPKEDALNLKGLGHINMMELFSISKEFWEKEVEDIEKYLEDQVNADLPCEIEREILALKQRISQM
Kind of assay: PEPCK enzyme assay (coupled pyruvate kinase/lactate dehydrogenase, absorbance at 340). The class given is biochemical. Particulars: recombinant human cytosolic GST-PEPCK; GTP and OAA at 3 fold and 10 fold Km; final DMSO 10%; room temperature, twenty minutes; read-out: In vitro IC50. Here is the method:
E. coli cells expressing GST-PEPCK were suspended in 5 volumes of lysis buffer (50 mM Tris-hydroxymethyl aminomethyl (TRIS), 150 mM sodium chloride (NaCl), 10 mM ethylene-diametetraacetic acid (EDTA), 5 mM dithiothreitol(DTT), 1% Nonidet P-40, pH 7.4) in the presence of protease inhibitors, incubated with lysozyme at 200 micrograms/ml for 30 min. at room temperature, and sonicated 4×30 seconds at 4 degrees C. After centrifugation at 12,000×g for 20 min. to remove insoluble material, the supernatant was loaded onto glutathione Sepharose (Pharmacia), washed with lysis buffer followed by washing with lysis buffer in the absence of NP-40. GST-PEPCK was eluted with the same buffer containing 20 mM glutathione. The eluted protein was concentrated and dialyzed against 25 mM Hepes(N-[2-hydroxyethyl]piperazine-N′[2-ethanesulfonic acid), 150 mM NaCl, 2.5 mM EDTA, 5 mM DTT, 30% glycerol, pH 7.4, and stored at −20 ° C.
The inhibitory effect of the compounds of the present invention on PEPCK enzymatic activity was determined using recombinant human cytosolic PEPCK, expressed and purified from E.coli as a GST-fusion. Guanosine triphosphate (GTP) and manganese dependent PEPCK enzyme activity catalyzed the decarboxylation of oxalacetate leading to the formation of guanosine diphosphate (GDP) and phosphoenol pyruvate (PEP). This reaction is coupled to pyruvate kinase and lactate dehydrogenase catalyzed reactions and the overall reaction rate determined by measuring the change in absorbance at 340 nm (Chang, H. C. and Lane M. D., J. Biol.Chem. 241:2413–2420, 1966). The following modifications were made to the protocol: 2.5 μg of recombinant, human cytosolic glutathione-S-transferase (GST)-PEPCK was added to a reaction mixture at room temperature which contained 0.3 mM GTP, 0.3 mM oxaloacetate (OAA), 3 mM magnesium chloride (MgCl2), 0.075 mM manganese chloride (MnCl2), 30 mM potassium phosphates (KPO4), pH 7.6, 1 mM dithiothreitol (DTT), 0.2 mM adenosine diphosphate (ADP), 1 mM nicotinamide adenine dinucleotide, reduced form (NADH), 0.9 Units/ml each of pyruvate kinase and lactate dehydrogenase and 1 mg/ml bovine serum albumin (BSA). Test compounds were added such that final concentration of DMSO was 10%. Reactions were run for twenty minutes.
Km values for GTP and OAA were determined according to Michelis-Menton conditions as described in Cornish-Bowden (Fundamentals of Enzyme Kinetics, 1995) in essentially the coupled assay conditions described above. […] Test compounds were added to reactions over a range of concentrations and IC50's were calculated from plots of inhibitor concentration versus enzyme rate. This method of determination of IC50 values is equally applicable to calculations based on PEPCK cellular assay.
The in vitro biological activity of several representative preferred compounds of the present invention in the foregoing PEPCK enzymatic assay is presented in Table 1.

Take `Cc1ncccc1C(=O)N(C)c1ccc(Cc2nc3c([nH]2)c(=O)n(Cc2ccccc2F)c(=O)n3CC2CC2)cc1` [Example 95, N-{4-[3-Cyclopropylmethyl-1-(2-fluorobenzyl)-2,6-dioxo-2,3,6,7-tetrahydro-1H-purin-8-ylmethyl]-phenyl}-2,N-dimethyl-nicotinamide]: the IC50 came out at 370 nM.
Then `CN(C(=O)c1cncnc1)c1ccc(Cc2nc3c([nH]2)c(=O)n(Cc2ccccc2F)c(=O)n3CC2CC2)cc1` [Example 96, Pyrimidine-5-carboxylic acid {4-[3-cyclopropylmethyl-1-(2-fluorobenzyl)-2,6-dioxo-2,3,6,7-tetrahydro-1H-purin-8-ylmethyl]-phenyl}-methyl-amide], with 380 nM; and `CN(C(=O)c1cccnc1)c1ccc(Cc2nc3c([nH]2)c(=O)n(Cc2ccccc2F)c(=O)n3CC2CC2)cc1` [Example 97, N-{4-[3-Cyclopropylmethyl-1-(2-fluorobenzyl)-2,6-dioxo-2,3,6,7-tetrahydro-1H-purin-8-ylmethyl]-phenyl}-N-methyl-nicotinamide], with 420 nM.
`CC(=O)Nc1ccc(C(=O)N(C)c2ccc(Cc3nc4c([nH]3)c(=O)n(Cc3ccccc3F)c(=O)n4CC3CC3)cc2)cn1` [Example 98, 6-Acetylamino-N-{4-[3-cyclopropylmethyl-1-(2-fluorobenzyl)-2,6-dioxo-2,3,6,7-tetrahydro-1H-purin-8-ylmethyl]-phenyl}-N-methyl-nicotinamide]: the IC50 is 440 nM.
Then `CN(C(=O)c1cnccn1)c1ccc(Cc2nc3c([nH]2)c(=O)n(Cc2ccccc2F)c(=O)n3CC2CC2)cc1` [Example 99, Pyrazine-2-carboxylic acid {4-[3-cyclopropylmethyl-1-(2-fluorobenzyl)-2,6-dioxo-2,3,6,7-tetrahydro-1H-purin-8-ylmethyl]-phenyl}-methyl-amide], with 460 nM; and `CN(C(=O)c1ccc(O)nc1)c1ccc(Cc2nc3c([nH]2)c(=O)n(Cc2ccccc2F)c(=O)n3CC2CC2)cc1` [Example 100, N-{4-[3-Cyclopropylmethyl-1-(2-fluorobenzyl)-2,6-dioxo-2,3,6,7-tetrahydro-1H-purin-8-ylmethyl]-phenyl}-6-hydroxy-N-methyl-nicotinamide], with 550 nM.
Next, `CN(C(=O)c1cccnc1O)c1ccc(Cc2nc3c([nH]2)c(=O)n(Cc2ccccc2F)c(=O)n3CC2CC2)cc1` [Example 101, N-{4-[3-Cyclopropylmethyl-1-(2-fluorobenzyl)-2,6-dioxo-2,3,6,7-tetrahydro-1H-purin-8-ylmethyl]-phenyl}-2-hydroxy-N-methyl-nicotinamide]: 630 nM.
Next, `Cc1nn(C)c(C)c1C(=O)N(C)c1ccc(Cc2nc3c([nH]2)c(=O)n(Cc2ccccc2F)c(=O)n3CC2CC2)cc1` [Example 102, 1,3,5-Trimethyl-1H-pyrazole-4-carboxylic acid {4-[3-cyclopropylmethyl-1-(2-fluorobenzyl)-2,6-dioxo-2,3,6,7-tetrahydro-1H-purin-8-ylmethyl]-phenyl}-methyl-amide]: 230 nM.
On to `Cc1nn(C)c(C)c1C(=O)C(=O)N(C)c1ccc(Cc2nc3c([nH]2)c(=O)n(Cc2ccccc2F)c(=O)n3CC2CC2)cc1` [Example 103, N-{4-[3-Cyclopropylmethyl-1-(2-fluorobenzyl)-2,6-dioxo-2,3,6,7-tetrahydro-1H-purin-8-ylmethyl]-phenyl}-N-methyl-2-oxo-2-(1,3,5-trimethyl-1H-pyrazol-4-yl)-acetamide], for which the IC50 came out at 250 nM.
Then `Cc1nn(C)c(Cl)c1C(=O)N(C)c1ccc(Cc2nc3c([nH]2)c(=O)n(Cc2ccccc2F)c(=O)n3CC2CC2)cc1` [Example 104, 3-Chloro-1,5-dimethyl-1H-pyrazole-4-carboxylic acid {4-[3-cyclopropylmethyl-1-(2-fluorobenzyl)-2,6-dioxo-2,3,6,7-tetrahydro-1H-purin-8-ylmethyl]-phenyl}-methyl-amide], with 280 nM; and `Cc1nc(C)c(C(=O)N(C)c2ccc(Cc3nc4c([nH]3)c(=O)n(Cc3ccccc3F)c(=O)n4CC3CC3)cc2)s1` [Example 105, 2,4-Dimethyl-thiazole-5-carboxylic acid {4-[3-cyclopropylmethyl-1-(2-fluorobenzyl)-2,6-dioxo-2,3,6,7-tetrahydro-1H-purin-8-ylmethyl]-phenyl}-methyl-amide], with 320 nM; and `Cc1nc(N)sc1C(=O)N(C)c1ccc(Cc2nc3c([nH]2)c(=O)n(Cc2ccccc2F)c(=O)n3CC2CC2)cc1` [Example 106, 2-Amino-4-methyl-thiazole-5-carboxylic acid {4-[3-cyclopropylmethyl-1-(2-fluorobenzyl)-2,6-dioxo-2,3,6,7-tetrahydro-1H-purin-8-ylmethyl]-phenyl}-methyl-amide], with 370 nM.
`Cc1nn(C)cc1C(=O)N(C)c1ccc(Cc2nc3c([nH]2)c(=O)n(Cc2ccccc2F)c(=O)n3CC2CC2)cc1` [Example 107, 1,3-Dimethyl-1H-pyrazole-4-carboxylic acid {4-[3-cyclopropylmethyl-1-(2-fluorobenzyl)-2,6-dioxo-2,3,6,7-tetrahydro-1H-purin-8-ylmethyl]-phenyl}-methyl-amide]: the IC50 came to 500 nM.
Then `Cc1nnsc1C(=O)N(C)c1ccc(Cc2nc3c([nH]2)c(=O)n(Cc2ccccc2F)c(=O)n3CC2CC2)cc1` [Example 108, 4-Methyl-[1,2,3]thiadiazole-5-carboxylic acid {4-[3-cyclopropylmethyl-1-(2-fluorobenzyl)-2,6-dioxo-2,3,6,7-tetrahydro-1H-purin-8-ylmethyl]-phenyl}-methyl-amide], with 550 nM.
`Cc1nocc1C(=O)N(C)c1ccc(Cc2nc3c([nH]2)c(=O)n(Cc2ccccc2F)c(=O)n3CC2CC2)cc1` [Example 109, 3-Methyl-isoxazole-4-carboxylic acid {4-[3-cyclopropylmethyl-1-(2-fluorobenzyl)-2,6-dioxo-2,3,6,7-tetrahydro-1H-purin-8-ylmethyl]-phenyl}-methyl-amide]: the IC50 was determined as 570 nM.
Then `Cc1noc(C)c1C(=O)N(C)c1ccc(Cc2nc3c([nH]2)c(=O)n(Cc2ccccc2F)c(=O)n3CC2CC2)cc1` [Example 110, 3,5-Dimethyl-isoxazole-4-carboxylic acid {4-[3-cyclopropylmethyl-1-(2-fluorobenzyl)-2,6-dioxo-2,3,6,7-tetrahydro-1H-purin-8-ylmethyl]-phenyl}-methyl-amide], with 660 nM; and `CN(C(=O)c1csnn1)c1ccc(Cc2nc3c([nH]2)c(=O)n(Cc2ccccc2F)c(=O)n3CC2CC2)cc1` [Example 111, [1,2,3]Thiadiazole-4-carboxylic acid {4-[3-cyclopropylmethyl-1-(2-fluorobenzyl)-2,6-dioxo-2,3,6,7-tetrahydro-1H-purin-8-ylmethyl]-phenyl}-methyl-amide], with 660 nM.
Then `CN(C(=O)c1cnn(C)c1)c1ccc(Cc2nc3c([nH]2)c(=O)n(Cc2ccccc2F)c(=O)n3CC2CC2)cc1` [Example 112, 1-Methyl-1H-pyrazole-4-carboxylic acid {4-[3-cyclopropylmethyl-1-(2-fluorobenzyl)-2,6-dioxo-2,3,6,7-tetrahydro-1H-purin-8-ylmethyl]-phenyl}-methyl-amide], with 690 nM.

The values are drawn from US7135475B2, “Amide substituted xanthine derivatives” (Hoffmann-La Roche Inc., priority 2002, dated 2006).
